Data on one compound can be found in patent EP0476853B1, “Triphenodioxazine dyes” (ZENECA LIMITED, priority 1990, dated 1992).

The data set in a line: Solubility of the dyebase in aqueous acid solvent systems. Format: physicochemical. As for the experimental part: The solubility of the product from step (a) was then determined in the following aqueous solvent systems.

For the compound `NCCNc1ccc2c(c1)Oc1c(Cl)c3c(c(Cl)c1=N2)Oc1cc(NCCN)ccc1N=3` [Formula (3)], the “Solubility (% w/w)” value (solvent: 25% formic acid (aqueous)) is 5.3 % w/w; the “Solubility (% w/w)” value (solvent: 25% lactic acid (aqueous)) is on record as 4.8 % w/w; the “Solubility (% w/w)” value (solvent: 50% formic acid (aqueous)) was determined as 7.5 % w/w; the “Solubility (% w/w)” value (solvent: 50% lactic acid (aqueous)) worked out at 4.9 % w/w; the “Solubility (% w/w)” value (solvent: 85% formic acid (aqueous)) stood at 24.7 % w/w; the “Solubility (% w/w)” value (solvent: 88% lactic acid (aqueous)) turned out to be 4.8 % w/w. The same compound showed a solubility (solvent: 50% aqueous acetic acid (comparison)) of 2.52 % w/w.
